# Data from US8129401B2, “Heterocyclic compounds useful for the treatment of inflammatory and allergic disorders: process for their preparation and pharmaceutical compositions containing them” (Glenmark Pharmaceuticals S.A., priority 2004, dated 2012).
# Structures can show the parent of a compound that is named as a salt.
# System: PDE4 enzyme
# Test: Inhibition of phosphodiesterase enzymes (PDE4), [3H]cAMP hydrolysis assay
# Assay type: biochemical
# Details: PDE4 inhibition at 1 μM compound
row,Compound,percent inhibition at 1 μM
1,"COc1ccc(C(=O)Nc2c(Cl)cncc2Cl)c2c3c(n(C)c12)CCN(C)C3 [Example 15, N9-(3,5-dichloro-4-pyridylcarbamoyl)-6-methoxy-2,5-methyl-1,3,4,5-tetrahydro-1H-pyrido[4,3-b]indole]",12.90% at 1 μM
2,"N9-(3,5-dichloro-4-pyridylcarbamoyl)-6-methoxy-5-methyl-1,3,4,5-tetrahydro-1H-pyrido[4,3-b]indole hydrochloride [Example 13]",20.99% at 1 μM

# More lines, now with the values ahead:
row,percent inhibition at 1 μM,Compound
1,31.75% at 1 μM,"COc1ccc(C(=O)Nc2c(Cl)cncc2Cl)c2c3c(sc12)CNCC3 [Example 08, N5 (3,5-dichloro-4-pyridyl)-8-methoxy-1,2,3,4-tetrahydrobenzo[4,5]thieno[2,3-c]pyridine-5-carboxamide hydrochloride]"
2,27.74% at 1 μM,"COc1ccc(C(=O)Nc2c(Cl)cncc2Cl)c2c3c(n(C)c12)CCN(C(=O)OC(C)(C)C)C3 [Example 10, tert-butyl 9-(3,5-dichloro-4-pyridylcarbamoyl)-6-methoxy-5-methyl-1,3,4,5-tetrahydro-1H-pyrido[4,3-b]indole-2-carboxylate]"
3,48.79% at 1 μM,"COc1ccc(C(=O)Nc2c(Cl)cncc2Cl)c2c3c(n(CC4CC4)c12)CCN(C(=O)OC(C)(C)C)C3 [Example 12, tert-butyl 9-(3,5-dichloro-4-pyridylcarbamoyl)-6-methoxy-5-cyclopropylmethyl-1,3,4,5-tetrahydro-1H-pyrido[4,3-b]indole-2-carboxylate]"
4,33.67% at 1 μM,"COc1ccc(C(=O)Nc2ccncc2)c2c3c(n(C)c12)CCN(C(=O)OC(C)(C)C)C3 [Example 17, tert-butyl 9-(4-pyridinylcarbamoyl)-6-methoxy-5-methyl-1,3,4,5-tetrahydro-1H-pyrido[4,3-b]indole-2-carboxylate]"
5,34.54% at 1 μM,"COc1ccc(C(=O)Nc2c(Cl)cncc2Cl)c2c3c(n(C)c12)C(=O)N(C)CC3 [Example 22, N-(3,5-dichloropyridin-4-yl)-2,9-dimethyl-8-methoxy-1-oxo-1,2,3,4-tetrahydro-β-carboline-5-carboxamide]"

# Same assay, conditions: PDE4 inhibition, 1 μM cAMP, 34° C.
row,Compound,IC50
1,"COc1ccc(C(=O)Nc2c(Cl)cncc2Cl)c2c1oc1cnncc12 [Example 01, N9-(3,5-dichloro-4-pyridyl)-6-methoxybenzo[4,5]furo[2,3-d]pyridazine-9-carboxamide]",1.38 nM
2,"COc1ccc(C(=O)Nc2c(Cl)cncc2Cl)c2c1oc1ccncc12 [Example 03, N9-(3,5-dichloro-4-pyridyl)-6-methoxybenzo[4,5]furo[3,2-c]pyridine-9-carboxamide]",0.73 nM
3,"O=C(Nc1c(Cl)cncc1Cl)c1ccc(OC(F)F)c2oc3cnncc3c12 [Example 04, N9-(3,5-dichloro-4-pyridyl)-6-difluoromethoxybenzo[4,5]furo[2,3-d]pyridazine-9-carboxamide]",3.41 nM
4,"CCOC(=O)N1CCc2c(oc3c(OC)ccc(C(=O)Nc4c(Cl)cncc4Cl)c23)C1 [Example 19, N-(3,5-dichloropyridin-4-yl)-2-(ethoxycarbonyl)-8-methoxy-1,2,3,4-tetrahydro[1]benzofuro[2,3-c]pyridine-5-carboxamide]",7.53 nM
5,"O=C(Nc1c(Cl)cncc1Cl)c1ccc(OC(F)F)c2oc3ccncc3c12 [Example 23, N9-(3,5-dichloro-4-pyridyl)-6-difluoromethoxybenzo[4,5]furo[3,2-c]pyridine-9-carboxamide]",0.25 nM
6,"O=C(Nc1c(Cl)c[n+]([O-])cc1Cl)c1ccc(OC(F)F)c2oc3ccncc3c12 [Example 27, 3,5-dichloro-4-(6-difluoromethoxybenzo[4,5]furo[3,2-c]pyridin-9-ylcarboxamido)-1-pyridiniumolate sodium]",2.42 nM

# More lines, now with the values ahead:
row,IC50,Compound
1,494 nM,"COc1ccc(C(=O)Nc2c(Cl)cncc2Cl)c2c1oc1cncnc12 [Example 02, N9-(3,5-dichloro-4-pyridyl)-6-methoxybenzo[4,5]furo[3,2-d]pyrimidine-9-carboxamide]"
2,416 nM,"COc1ccc(C(=O)Nc2c(Cl)cncc2Cl)c2c3c(sc12)CN(C(=O)OC(C)(C)C)CC3 [Example 07, tert-butyl 5-(3,5-dichloro-4-pyridylcarbamoyl)-8-methoxy-1,2,3,4-tetrahydrobenzo[4,5]thieno[2,3-c]pyridine-2-carboxylate]"
3,177 nM,"COc1ccc(C(=O)Nc2c(Cl)cncc2Cl)c2c3c(n(Cc4ccccc4)c12)CCN(C(=O)OC(C)(C)C)C3 [Example 11, tert-butyl 9-(3,5-dichloro-4-pyridylcarbamoyl)-6-methoxy-5-benzyl-1,3,4,5-tetrahydro-1H-pyrido[4,3-b]indole-2-carboxylate]"
4,3530 nM,"COc1ccc(C(=O)Nc2c(Cl)cncc2Cl)c2c3c(n(Cc4ccccc4)c12)CCNC3 [Example 14, N9-(3,5-dichloro-4-pyridylcarbamoyl)-6-methoxy-5-benzyl-1,3,4,5-tetrahydro-1H-pyrido[4,3-b]indole hydrochloride]"
5,2280 nM,"COc1ccc(C(=O)Nc2c(Cl)cncc2Cl)c2c3c(n(Cc4ccccc4)c12)CCN(C)C3 [Example 16, N9-(3,5-dichloro-4-pyridylcarbamoyl)-6-methoxy-2-methyl-5-benzyl-1,3,4,5-tetrahydro-1H-pyrido[4,3-b]indole]"
6,17.4 nM,"COc1ccc(C(=O)Nc2c(Cl)cncc2Cl)c2c3c(oc12)CNCC3 [Example 20, N-(3,5-dichloropyridin-4-yl)-8-methoxy-1,2,3,4-tetrahydro[1]benzofuro[2,3-c]pyridine-5-carboxamide hydrochloride]"
7,20.4 nM,"COc1ccc(C(=O)Nc2c(Cl)cncc2Cl)c2c3c(oc12)CCNC3 [Example 21, N-(3,5-dichloropyridin-4-yl)-6-methoxy-1,2,3,4-tetrahydro[1]benzofuro[3,2-c]pyridine-9-carboxamide hydrochloride]"
8,3.99 nM,"O=C(Nc1c(Cl)c[n+]([O-])cc1Cl)c1ccc(OC(F)F)c2oc3cnncc3c12 [Example 25, 3,5-dichloro-4-(6-difluoromethoxybenzo[4,5]furo[2,3-d]pyridazine-9-ylcarboxamido)-1-pyridiniumolate]"
9,2.69 nM,"O=C(Nc1c(Cl)c[n+]([O-])cc1Cl)c1ccc(OC(F)F)c2oc3ccncc3c12 [Example 26, 3,5-dichloro-4-(6-difluoromethoxybenzo[4,5]furo[3,2-c]pyridin-9-ylcarboxamido)-1-pyridiniumolate]"

# Same assay, conditions: PDE4 inhibition, 1 μM cAMP, 34° C.; sodium
row,Compound,IC50
1,"O=C(Nc1c(Cl)cncc1Cl)c1ccc(OC(F)F)c2oc3ccncc3c12 [Example 24, N9-(3,5-dichloro-4-pyridyl)-6-difluoromethoxybenzo[4,5]furo[3,2-c]pyridine-9-carboxamide sodium]",0.02 nM

# Same assay, conditions: PDE4 inhibition, 1 μM cAMP, 34° C.; sodium salt
row,Compound,IC50
1,"O=C(Nc1c(Cl)cncc1Cl)c1ccc(OC(F)F)c2oc3cnncc3c12 [Example 05, N9-(3,5-dichloro-4-pyridyl)-6-difluoromethoxybenzo[4,5]furo[2,3-d]pyridazine-9-carboxamide sodium salt]",4.15 nM
2,"COc1ccc(C(=O)Nc2c(Cl)cncc2Cl)c2c1oc1cnncc12 [Example 18, N9-(3,5-dichloro-4-pyridyl)-6-methoxybenzo[4,5]furo[2,3-d]pyridazine-9-carboxamide sodium salt]",4.08 nM
